The record followed here is patent US20200170291A1, “PROCESSES FOR PRODUCING LACTITOL GRANULATES AND GRANULATES PRODUCED THEREBY” (PARTICLE DYNAMICS INTERNATIONAL, LLC, priority 2017, published 2020).

The nature of series [1]: MALVERN MASTERSIZER 2000 particle size (d10, d50, d90). The series is classed as physicochemical. How it is done:
All particle size (PS) analyses were conducted using a ROTAP Particle Size Analyzer and a MALVERN MASTERSIZER 2000, except as otherwise indicated. All particle size data were measured in microns and analyzed via the MALVERN MASTERSIZER 2000.

Series [2] is described as follows: HANSON FLODEX powder flowability (viscosity). The series is classed as physicochemical. The text has this:
Samples were also subjected to flowability testing using a HANSON FLODEX Powder Flowability tester. The basis for the method is the powders ability to fall freely through a hole in a plate. The diameter of the smallest hole through which the powder passes is considered the flowability index. The flowability index (radius of hole size in cm) along with the bulk density of the material tested are then used to determine the viscosity (internal friction coefficient) of the powder. Lower powder viscosity indicates better flowability.
Samples of the finished lactitol granulations produced during execution of the commercial optimization protocol were also evaluated for flow using the HANSON Intrinsic Flowability Test. During the test, the smallest hole (in millimeters) that the product will flow through is determined in the FLODEX apparatus. Using this information and the bulk density of each powder (as determined in a 250 mL graduated cylinder) the coefficient of friction or viscosity (K) was calculated. The viscosity K (in poises) is equal to 490 (½ the acceleration of gravity) times the radius of the hole in centimeters times the bulk density of the sample. The result K is then multiplied by 100 to express the viscosity in centipoises.

[3] abbreviates: jet mill Grinding Pressure 25 PSI, Feed Injection Pressure 20 PSI.
Where [4] appears, read: jet mill Grinding Pressure 25 PSI, Feed Injection Pressure 40 PSI.
Where [5] appears, read: jet mill Grinding Pressure 25 PSI, Feed Injection Pressure 60 PSI.
Setting [6] is: jet mill Grinding Pressure 30 PSI, Feed Injection Pressure 20 PSI.
Setting [7] is: jet mill Grinding Pressure 30 PSI, Feed Injection Pressure 40 PSI.
[8] abbreviates: jet mill Grinding Pressure 30 PSI, Feed Injection Pressure 60 PSI.
[9] abbreviates: jet mill Grinding Pressure 35 PSI, Feed Injection Pressure 20 PSI.
Setting [10] is: jet mill Grinding Pressure 35 PSI, Feed Injection Pressure 40 PSI.
The mark [11] stands for this setting: jet mill Grinding Pressure 35 PSI, Feed Injection Pressure 60 PSI.

Each structure is given as a SMILES string. Like-named read-outs stand apart in the source and are kept apart here.

On to `OC[C@@H](O)[C@@H](O[C@@H]1O[C@H](CO)[C@H](O)[C@H](O)[C@H]1O)[C@H](O)[C@@H](O)CO` [Drum No. 20], for which, in series [1] (listed as 20), the “PS d10” value stood at 4.0 μ, the “PS d50” value worked out at 33.8 μ, the “PS d90” value amounted to 209.8 μ and the “Particle Size Span” value is listed as 6.1.

As for `OC[C@@H](O)[C@@H](O[C@@H]1O[C@H](CO)[C@H](O)[C@H](O)[C@H]1O)[C@H](O)[C@@H](O)CO` [Drum No. 21], in series [1] (listed as 21), the “PS d10” value came out at 5.0 μ, the “PS d50” value is given as 50.8 μ, the “PS d90” value is given as 290.2 μ and the “Particle Size Span” value turned out to be 5.6.

As to `OC[C@@H](O)[C@@H](O[C@@H]1O[C@H](CO)[C@H](O)[C@H](O)[C@H]1O)[C@H](O)[C@@H](O)CO` [Drum No. 22], in series [1] (listed as 22), the “PS d10” value is on record as 4.4 μ, the “PS d50” value came to 36.7 μ, the “PS d90” value was determined as 235.3 μ and the “Particle Size Span” value worked out at 6.3.

For `OC[C@@H](O)[C@@H](O[C@@H]1O[C@H](CO)[C@H](O)[C@H](O)[C@H]1O)[C@H](O)[C@@H](O)CO` [Drum No. 24], in series [1] (listed as 24), the “PS d10” value is recorded as 5.4 μ, the “PS d50” value is given as 53.1 μ, the “PS d90” value is 289.0 μ and the “Particle Size Span” value was found to be 5.3.

For `OC[C@@H](O)[C@@H](O[C@@H]1O[C@H](CO)[C@H](O)[C@H](O)[C@H]1O)[C@H](O)[C@@H](O)CO` [Drum No. 25], in series [1] (listed as 25), the “PS d10” value is given as 4.2 μ, the “PS d50” value came to 35.5 μ, the “PS d90” value stood at 261.8 μ and the “Particle Size Span” value worked out at 7.3.

With `OC[C@@H](O)[C@@H](O[C@@H]1O[C@H](CO)[C@H](O)[C@H](O)[C@H]1O)[C@H](O)[C@@H](O)CO` [Drum No. 26], in series [1] (listed as 26), the “PS d10” value is 4.4 μ, the “PS d50” value turned out to be 40.8 μ, the “PS d90” value was determined as 298.4 μ and the “Particle Size Span” value amounted to 7.2.

As for `OC[C@@H](O)[C@@H](O[C@@H]1O[C@H](CO)[C@H](O)[C@H](O)[C@H]1O)[C@H](O)[C@@H](O)CO` [Drum No. 27], in series [1] (listed as 27), the “PS d10” value worked out at 4.2 μ, the “PS d50” value amounted to 40.2 μ, the “PS d90” value is 272.3 μ and the “Particle Size Span” value is recorded as “'6.7”.

Consider `OC[C@@H](O)[C@@H](O[C@@H]1O[C@H](CO)[C@H](O)[C@H](O)[C@H]1O)[C@H](O)[C@@H](O)CO` [Drum No. 28], for which, in series [1] (listed as 28), the “PS d10” value was 4.6 μ, the “PS d50” value was determined as 40.4 μ, the “PS d90” value was 263.7 μ and the “Particle Size Span” value was 6.4.

Take `OC[C@@H](O)[C@@H](O[C@@H]1O[C@H](CO)[C@H](O)[C@H](O)[C@H]1O)[C@H](O)[C@@H](O)CO` [Drum No. 29]: in series [1] (listed as 29), the “PS d10” value is 5.7 μ, the “PS d50” value worked out at 84.8 μ, the “PS d90” value worked out at 401.6 μ and the “Particle Size Span” value was 4.7.

In the case of `OC[C@@H](O)[C@@H](O[C@@H]1O[C@H](CO)[C@H](O)[C@H](O)[C@H]1O)[C@H](O)[C@@H](O)CO` [Drum No. 33], in series [1] (listed as 33), the “PS d10” value was found to be 4.1 μ, the “PS d50” value was 36.6 μ, the “PS d90” value is 267.6 μ and the “Particle Size Span” value was 7.2.

On to `OC[C@@H](O)[C@@H](O[C@@H]1O[C@H](CO)[C@H](O)[C@H](O)[C@H]1O)[C@H](O)[C@@H](O)CO` [Drum No. 37], for which, in series [1] (listed as 37), the “PS d10” value is on record as 4.4 μ, the “PS d50” value is on record as 43.9 μ, the “PS d90” value turned out to be 337.2 μ and the “Particle Size Span” value is 7.6.

As to `OC[C@@H](O)[C@@H](O[C@@H]1O[C@H](CO)[C@H](O)[C@H](O)[C@H]1O)[C@H](O)[C@@H](O)CO` [Drum No. Last], in series [1] (listed as Last), the “PS d10” value was determined as 4.2 μ, the “PS d50” value was 39.1 μ, the “PS d90” value was 341.6 μ and the “Particle Size Span” value is recorded as 8.6.

Consider `OC[C@@H](O)[C@@H](O[C@@H]1O[C@H](CO)[C@H](O)[C@H](O)[C@H]1O)[C@H](O)[C@@H](O)CO` [Proof of Concept], for which, in series [1], the “PS d10” value was found to be 5.3 μ, the “PS d50” value was 60.0 μ, the “PS d90” value is reported as 316.2 μ and the “Particle Size Span” value is 5.2.

Regarding `OC[C@@H](O)[C@@H](O[C@@H]1O[C@H](CO)[C@H](O)[C@H](O)[C@H]1O)[C@H](O)[C@@H](O)CO` [Sample 1b], in series [1], the “PS d10” value amounted to 5.6 μ, the “PS d50” value is given as 56.7 μ, the “PS d90” value was found to be 420.9 μ and the “Particle Size Span” value is given as 7.3.

Regarding `OC[C@@H](O)[C@@H](O[C@@H]1O[C@H](CO)[C@H](O)[C@H](O)[C@H]1O)[C@H](O)[C@@H](O)CO` [Sample 2b], in series [1], the “PS d10” value turned out to be 5.5 μ, the “PS d50” value is on record as 56.5 μ, the “PS d90” value came out at 401.2 μ and the “Particle Size Span” value stood at 7.0.

As for `OC[C@@H](O)[C@@H](O[C@@H]1O[C@H](CO)[C@H](O)[C@H](O)[C@H]1O)[C@H](O)[C@@H](O)CO` [Sample 3b], in series [1], the “PS d10” value was found to be 7.6 μ, the “PS d50” value is reported as 113.1 μ, the “PS d90” value was 656.4 μ and the “Particle Size Span” value came to 5.7.

As to `OC[C@@H](O)[C@@H](O[C@@H]1O[C@H](CO)[C@H](O)[C@H](O)[C@H]1O)[C@H](O)[C@@H](O)CO` [jet milled lactitol], the “viscosity (flowability)” value in series [2] is recorded as 46,905 cps. Also, the “viscosity of jet milled lactitol, times higher than raw lactitol” value in series [2] is listed as “approximately 4.8 times”. The “Particle Size Span” value in series [1] (setting [3]) is 4.2; in series [1] (setting [4]), 4.6; in series [1] (setting [5]) it was 7.2; in series [1] (setting [6]), 12.7; in series [1] (setting [7]), 13.7; in series [1] (setting [8]), 11.1. Also, the “Particle Size Span” value is given as 17.5 in series [1] (setting [9]), 6.5 in series [1] (setting [10]) and 5.4 in series [1] (setting [11]). In addition, the “Particle Size d10” value in series [1] (setting [3]) was found to be 10.8 μ; in series [1] (setting [4]) it was 8.5 μ; in series [1] (setting [5]) it was 5.5 μ; in series [1] (setting [6]), 4.5 μ; in series [1] (setting [7]), 4.5 μ; in series [1] (setting [8]) it was 4.5 μ. The “Particle Size d10” value in series [1] (setting [9]) stood at 4.1 μ; in series [1] (setting [10]) it was 5.8 μ; in series [1] (setting [11]), 7.6 μ. Besides, the “Particle Size d50” value in series [1] (setting [3]) worked out at 150.7 μ; in series [1] (setting [4]) it was 122.9 μ; in series [1] (setting [5]), 84.3 μ; in series [1] (setting [6]), 47.8 μ; in series [1] (setting [7]), 46.3 μ; in series [1] (setting [8]), 45.6 μ. For the same compound, the “Particle Size d50” value was 36.0 μ in series [1] (setting [9]), 83.4 μ in series [1] (setting [10]) and 110.9 μ in series [1] (setting [11]). In addition, the “Particle Size d90” value in series [1] (setting [3]) came to 646.1 μ; in series [1] (setting [4]), 585.1 μ; in series [1] (setting [5]), 619.5 μ; in series [1] (setting [6]) it was 615.2 μ; in series [1] (setting [7]) it was 640.1 μ; in series [1] (setting [8]), 513.0 μ. For the same compound, the figures for the “Particle Size d90” value in series [1] (setting [9]), in series [1] (setting [10]) and in series [1] (setting [11]) were 635.0 μ, 548.6 μ and 611.9 μ, respectively.
